Assay results published in ChEMBL document CHEMBL4483862, “Open-source discovery of chemical leads for next-generation chemoprotective antimalarials” (2018).
pIC50: −log10 of the molar value.

Test system: Plasmodium berghei
Assay: Luciferase/luciferin-expressing antifolate-resistant parasites were used to infect a culture of HepG2 cells that were pre-incubated with compounds. Infected hepatocytes emit light due to the luciferase reaction. Assay results are presented as the percent inhibition of light emission compared to control. […]
Type: functional
Conditions: sporozoite; for pIC50: read-out: LUCIFERASE INFECTION ASSAY - IC50; for IC90: read-out: LUCIFERASE INFECTION ASSAY - IC90

| SMILES | pIC50 | IC90 |
| --- | --- | --- |
| CCOC(=O)c1sc([S+](C)[O-])c2c1CCc1conc1-2 (centres undefined) | < 4.97 | > 10.6 µM |
| Clc1cccc(Sc2ccc(-c3ccccn3)s2)c1 | < 4.96 | > 10.9 µM |
| COC(=O)c1c(C(=O)OC)c2n(c1C)CCS2 | < 4.89 | > 12.9 µM |
| CCOC(=O)c1ccc(-n2sccc2=O)cc1 | < 4.88 | > 13.2 µM |
| Cc1c(S(=O)(=O)c2ccc(Cl)cc2)csc1S(=O)(=O)N1CCOCC1 | < 5.11 | > 7.82 µM |
| CSc1nccc(-c2sc(SC)c3c2CCCC3=O)n1 | < 4.99 | > 10.2 µM |
| CC1(C)CCc2cc(/C=N/OC(=O)Nc3ccc(OC(F)(F)F)cc3)ccc2O1 | < 5.09 | > 8.08 µM |
| CC1(C)CC(=O)c2cnc(SCC(=O)Nc3ccc(F)cc3F)nc2C1 | < 5.06 | > 8.74 µM |
| CN1c2ccsc2C(=O)/C(=C/Nc2cccc(Cl)c2)S1(=O)=O | < 5.03 | > 9.3 µM |
| Cc1cc2ncc(-c3ccnc(SCC(=O)c4ccc(Cl)cc4)n3)c(C)n2n1 | < 5.09 | > 8.05 µM |
| O=S(=O)(Oc1ccc(Cl)cc1)c1cc(S(=O)(=O)c2ccccc2)cs1 | < 5.10 | > 7.95 µM |
| CSc1sc(C(N)=S)c(C)c1C(C)=O | < 4.87 | > 13.4 µM |
| CSc1sc(-c2cc[nH]n2)c(-c2ccccc2)c1C#N | < 4.95 | > 11.1 µM |
| CSc1sc(-c2ccon2)c(-c2ccccc2)c1C#N | < 4.95 | > 11.1 µM |
| CSc1cc(-c2sc3scc(C)c3c2C)n[nH]1 | < 4.93 | > 11.8 µM |
| COc1ccc(NC=C2C(=O)CC(c3cccs3)CC2=O)cc1 (centres undefined) | < 5.00 | > 10.1 µM |
| O=C(COc1ccccc1SCc1ccc(Cl)cc1)NNC(=O)c1cccc(C(F)(F)F)c1 | < 5.18 | > 6.67 µM |
| O=C(NC(=O)c1cnn2c(C(F)(F)F)cc(C(F)(F)F)nc12)Nc1ccc(Cl)cc1 | < 5.14 | > 7.31 µM |
| Cn1nc(-c2ccc(/C=N/NC(=O)c3ccc(Cl)cc3Cl)s2)cc1C(F)(F)F | < 5.13 | > 7.38 µM |
| O=C(NCc1ccc(S(=O)(=O)N2CCOCC2)s1)c1ccc(Cl)cc1 | < 5.08 | > 8.23 µM |
| N=S(=O)(c1ccc(Cl)cc1)c1cccs1 (centres undefined) | < 4.89 | > 12.8 µM |
| CC1(C)CC(=O)C=C(SCC(=O)Nc2cccc(C(F)(F)F)c2)S1 | < 5.06 | > 8.79 µM |

| SMILES | pIC50 | IC90 |
| --- | --- | --- |
| Cc1ccc(S(=O)(=O)CCN2C(=O)CSC2=O)cc1 | < 4.96 | > 11 µM |
| O=C(COc1ccccc1CSc1ccc(Cl)cc1)N/N=C/c1ccccc1Cl | < 5.13 | > 7.41 µM |
| CO/N=C1\CC(C)(C)Cc2c(-c3ccn(C(=O)Nc4ccc(Cl)cc4)n3)sc(SC)c21 | < 5.16 | > 6.95 µM |
| O=[N+]([O-])c1ccsc1Oc1ccc(Cl)cc1Cl | < 4.94 | > 11.4 µM |
| Cc1cc2ncc(-c3ccnc(SCC(=O)Nc4cccc(C(F)(F)F)c4)n3)c(C)n2n1 | < 5.14 | > 7.2 µM |
| Cn1nc(-c2ccc(/C=C(\C#N)S(C)(=O)=O)s2)cc1C(F)(F)F | < 5.04 | > 9.13 µM |
| COC(=O)C1=C(Nc2ccc(OS(=O)(=O)c3ccc(F)cc3F)cc2)CSC1 | < 5.11 | > 7.72 µM |
| C=CCNC(=O)CSC1=CC(=O)CC(c2ccc(Cl)cc2)S1 (centres undefined) | < 5.03 | > 9.32 µM |
| N#CC(=C1SCCCCS1)S(=O)(=O)c1ccccc1 | < 4.97 | > 10.6 µM |
| O=S(=O)(Nc1cccc(C(F)(F)F)c1)c1ccc(S(=O)(=O)c2ncc(C(F)(F)F)cc2Cl)s1 | < 5.22 | > 5.99 µM |
| CC1(C)CC(=O)c2c(SCCOC(=O)Nc3ccccc3)sc(C#N)c2C1 | < 5.08 | > 8.24 µM |
| COc1ccc(CSc2nnc(CSc3cccs3)n2C)cc1 | < 5.04 | > 9.08 µM |
| O=S(=O)(CCSc1ccc(C(F)(F)F)cn1)c1ccc(OC(F)(F)F)cc1 | < 5.12 | > 7.65 µM |
| CSc1sc(C(=O)N2CCOCC2)c2c1S(=O)(=O)N(C)c1ccccc1-2 | < 5.09 | > 8.04 µM |
| CSc1sc(-c2ccnc(SCc3cccc(F)c3)n2)c2c1C(=O)CCC2 | < 5.10 | > 7.92 µM |
| CSc1nccc(-c2sc(SC)c3c2CC(C)(C)CC3=O)n1 | < 5.03 | > 9.41 µM |
| C=S(=O)(N/C=C1/C(=O)c2ccccc2N(C)S1(=O)=O)c1ccccc1 (centres undefined) | < 5.06 | > 8.77 µM |
| CSc1nnc(-c2csc(S(=O)(=O)Oc3cc(Cl)cc(Cl)c3)c2)n1C | < 5.12 | > 7.56 µM |
| CC(=O)c1sc(SCCS(=O)(=O)c2ccccc2)c2c1CC(C)(C)CC2=O | < 5.11 | > 7.81 µM |
| CSc1sc(Br)c2c1/C(=N\O)CC(C)(C)C2 | < 4.99 | > 10.3 µM |
| CO/N=C1\CC(C)(C)Cc2c(-c3ccn(S(=O)(=O)c4ccccc4Cl)n3)sc(SC)c21 | < 5.18 | > 6.65 µM |
| C=Cc1c(S(C)(=O)=O)sc(C(N)=O)c1C | < 4.87 | > 13.5 µM |

| SMILES | pIC50 | IC90 |
| --- | --- | --- |
| Cc1nn(Cc2nnc(SCC(=O)c3ccc(Cl)cc3)n2C)c(C)c1[N+](=O)[O-] | < 5.11 | > 7.84 µM |
| Cc1cc2ncc(-c3ccnc(SCC(=O)C(C)(C)C)n3)c(C)n2n1 | < 5.03 | > 9.28 µM |
| CCOC(=O)c1sc(SC)c2c1CCc1conc1-2 | < 4.95 | > 11.2 µM |
| CSc1nccc(-c2ccc(S(=O)(=O)n3nc(C)c([N+](=O)[O-])c3C)s2)n1 | < 5.10 | > 8.02 µM |
| CSc1nnc(-c2csc(S(=O)(=O)Nc3ccccc3Cl)c2)n1C | < 5.08 | > 8.23 µM |
| NNC(=O)COc1ccccc1CSc1ccc(Cl)cc1 | < 4.99 | > 10.2 µM |
| CSc1sc(C(=O)Nc2ccc(Cl)cc2)c2c1S(=O)(=O)N(C)c1ccccc1-2 | < 5.14 | > 7.32 µM |
| CC1(C)CC(=O)C=C(SCCS(=O)(=O)c2ccc(Cl)cc2)S1 | < 5.06 | > 8.75 µM |
| O=C1CCC(c2ccccc2)C(=O)/C1=N\Nc1ccccc1Cl (centres undefined) | < 5.00 | > 10.1 µM |
| Cn1c(Sc2sccc2[N+](=O)[O-])nnc1C(F)(F)F | < 4.97 | > 10.6 µM |
| Cc1csc2sc(/C=N/Cc3cccs3)c(C)c12 | < 4.95 | > 11.3 µM |
| O=C1C=C(SCC(=O)c2ccc([N+](=O)[O-])cc2)SC(c2ccccc2Cl)C1 (centres undefined) | < 5.10 | > 7.86 µM |
| CN1c2ccsc2C(=O)/C(=C\Nc2ccccc2Cl)S1(=O)=O | < 5.03 | > 9.3 µM |
| CSC1=CC(=O)CC(C)(C)S1 | < 4.76 | > 17.5 µM |
| N#CC(=N)C(C#N)NCc1ccccc1Sc1ccc(Cl)cc1 (centres undefined) | < 5.01 | > 9.68 µM |
| CNc1ccc(CSc2ccc(C(F)(F)F)cn2)cc1C(F)(F)F | < 5.05 | > 9.01 µM |
| CO/N=C1\CCCc2c(C(=O)NNS(=O)(=O)c3ccccc3Cl)sc(SC)c21 | < 5.14 | > 7.17 µM |
| C=S(=O)(NS(=O)(=O)c1ccc2c(c1)CCN2C(C)=O)c1ccc(C)cc1 (centres undefined) | < 5.08 | > 8.41 µM |
| CSc1ncc2c(n1)CC(C)(C)C/C2=N\OC(=O)c1cccc(C(F)(F)F)c1 | < 5.09 | > 8.06 µM |
| COC(=O)C1=C(Nc2ccc(OS(=O)(=O)c3ccc(Cl)cc3)cc2)CSC1 | < 5.11 | > 7.75 µM |
| CCOC(=O)c1sc(N(NC(=O)c2ccc(Cl)cc2)C(=O)c2ccc(Cl)cc2)c2c1CC(C)(C)CC2=O | 5.74 | 2.02 µM |
| Cn1nc(-c2ccc(S(=O)(=O)Oc3cccc([N+](=O)[O-])c3)s2)cc1C(F)(F)F | < 5.12 | > 7.61 µM |

| SMILES | pIC50 | IC90 |
| --- | --- | --- |
| CSc1sc(C(=O)N/N=C/c2ccc(Cl)cc2)c2c1C1(CCC2)SCCS1 | < 5.14 | > 7.25 µM |
| COC(=O)c1sccc1N/N=C(\C#N)S(=O)(=O)c1ccc(Cl)cc1 | < 5.07 | > 8.6 µM |
| CN(C)n1cccc1/C=C(\C#N)S(C)(=O)=O | < 4.86 | > 13.8 µM |
| CC(C)(C)c1cc(-c2nccs2)ccc1/C=N/O | < 4.90 | > 12.7 µM |
| O=C(COc1ccccc1SCc1ccc(Cl)cc1)NNC(=O)c1ccccc1Cl | < 5.15 | > 7.15 µM |
| CCOC(=O)c1ccc(Oc2sccc2[N+](=O)[O-])cc1 | < 4.95 | > 11.3 µM |
| O=S(=O)(Oc1cccc(C(F)(F)F)c1)c1cc(S(=O)(=O)c2ccccc2)cs1 | < 5.13 | > 7.36 µM |
| CCOC(=O)c1sc(N2CCCC2)c2c1CC(C)(C)CC2=O | < 4.99 | > 10.3 µM |
| O=S(=O)(Oc1ccc(Cl)cc1)c1cc(S(=O)(=O)Oc2ccc(Cl)cc2)c(Cl)s1 | < 5.18 | > 6.6 µM |
| CCOC(=O)c1sc(N(NC(=O)c2cc(C(F)(F)F)cc(C(F)(F)F)c2)C(=O)c2cc(C(F)(F)F)cc(C(F)(F)F)c2)c2c1CC(C)(C)CC2=O | < 5.36 | > 4.33 µM |
| CSc1sc(-c2ccnc(SCC(=O)c3ccc(Cl)cc3)n2)c2c1C(=O)CCC2 | < 5.15 | > 7.16 µM |
| Cc1nn(S(=O)(=O)c2ccc(-c3cc(C(F)(F)F)n(C)n3)s2)c(C)c1Br | < 5.15 | > 7.03 µM |
| CSc1sc(-c2nc(C(C)(C)C)cs2)c(C)c1C(C)=O | < 5.00 | > 10.1 µM |
| Cc1cc(NNC(=O)c2ccccc2Cl)nc2c1c(-c1cccs1)nn2C | < 5.08 | > 8.29 µM |
| Cc1nn(Cc2nnc(SCc3cccc(C(F)(F)F)c3)o2)c(C)c1Br | < 5.13 | > 7.38 µM |
| CCOC(=O)c1csc(-c2sc(SC)c(C(C)=O)c2C)n1 | < 5.02 | > 9.66 µM |
| CC(=O)c1sc(SCCS(=O)(=O)c2ccc(C)cc2)c2c1CC(C)(C)CC2=O | < 5.12 | > 7.56 µM |
| CC(C)c1ccc(NC(=O)CSc2ncc3c(n2)CC(C)(C)CC3=O)cc1 | < 5.07 | > 8.6 µM |
| CC(C)(C)c1csc(-c2ccc(/C=N/OC(=O)Nc3ccc(Cl)cc3)cc2)n1 | < 5.10 | > 7.97 µM |
| O=C(COc1ccccc1SCc1ccc(Cl)cc1)NNC(=O)c1ccc(Cl)cc1 | < 5.15 | > 7.15 µM |
| O=C1CCC(c2ccccc2)C(=O)/C1=N\Nc1ccc(Cl)cc1 (centres undefined) | < 5.00 | > 10.1 µM |
